{"source": "ChEMBL document CHEMBL2062393", "about": "“Drugs for stroke: action of nitrone (Z)-N-(2-bromo-5-hydroxy-4-methoxybenzylidene)-2-methylpropan-2-amine oxide on rat cortical neurons in culture subjected to oxygen-glucose-deprivation” (Eur J Med Chem, 2012)", "format_in_all_cases": "functional", "key": {"Cortical neurone [1]": {"system": "Cortical neurone", "assay": "Neuroprotective activity against Wistar rat Cortical neurons assessed as reduction of oxygen-glucose-deprivation-induced cell death at 1 to 10 uM treated during reperfusion measured after 24 hrs by XTT assay"}, "Cortical neurone [2]": {"system": "Cortical neurone", "assay": "Neuroprotective activity against Wistar rat Cortical neurons assessed as reduction of oxygen-glucose-deprivation-induced cell death at 100 uM treated during reperfusion measured after 24 hrs by XTT assay"}, "Cortical neurone [3]": {"system": "Cortical neurone", "assay": "Neuroprotective activity against Wistar rat Cortical neurons assessed as reduction of oxygen-glucose-deprivation-induced lipid peroxidation at 1 uM treated during reperfusion measured after 24 hrs by TBARS method"}, "Cortical neurone [4]": {"system": "Cortical neurone", "assay": "Neuroprotective activity against Wistar rat Cortical neurons assessed as reduction of oxygen-glucose-deprivation-induced mitochondrial membrane potential at 1 to 100 uM treated during reperfusion measured after 24 hrs by spectrofluorometer analysis"}, "Cortical neurone [5]": {"system": "Cortical neurone", "assay": "Neuroprotective activity against Wistar rat Cortical neurons assessed as reduction of oxygen-glucose-deprivation-induced ROS production at 1 uM treated during reperfusion measured after 24 hrs by H2DCF-DA assay"}, "Cortical neurone [6]": {"system": "Cortical neurone", "assay": "Neuroprotective activity against Wistar rat Cortical neurons assessed as reduction of oxygen-glucose-deprivation-induced caspase-3 activity at 1 to 100 uM treated during reperfusion measured after 24 hrs by spectrofluorometer analysis"}, "Cortical neurone [7]": {"system": "Cortical neurone", "assay": "Neuroprotective activity against Wistar rat Cortical neurons assessed as reduction of oxygen-glucose-deprivation-induced LDH release at 1 to 100 uM treated during reperfusion measured after 24 hrs"}, "Cortical neurone [8]": {"system": "Cortical neurone", "assay": "Neuroprotective activity against Wistar rat Cortical neurons assessed as reduction of oxygen-glucose-deprivation-induced lipid peroxidation at 100 uM treated during reperfusion measured after 24 hrs by TBARS method"}}, "note": "Activity calls are given as the source filed them. The calls are words filed in the database; no cut-off is given here.", "data": [{"smiles": "COc1cc(Br)c(/C=[N+](\\[O-])C(C)(C)C)cc1O", "values": [{"measurement": "Activity", "setting": "Cortical neurone [1]", "value": "inactive"}, {"measurement": "Activity", "setting": "Cortical neurone [2]", "value": "Active"}, {"measurement": "Activity", "setting": "Cortical neurone [3]", "value": "Active"}, {"measurement": "Activity", "setting": "Cortical neurone [4]", "value": "inactive"}, {"measurement": "Activity", "setting": "Cortical neurone [5]", "value": "Active"}, {"measurement": "Activity", "setting": "Cortical neurone [6]", "value": "Active"}, {"measurement": "Activity", "setting": "Cortical neurone [7]", "value": "Active"}, {"measurement": "Activity", "setting": "Cortical neurone [8]", "value": "inactive"}]}]}
